Measured values reported in US20210269434A1, “TRICYCLIC COMPOUNDS AS INHIBITORS OF KRAS” (Incyte Corporation, priority 2020, published 2021).

Key:
KRAS G12C = KRAS G12C (Homo sapiens, UniProt P01116, G12C); test: GDP-GTP exchange assay (KRAS_G12C exchange); format: biochemical; conditions: bodipy-GDP loaded KRAS G12C 2.5 nM, SOS1 150 nM, GppNHp; 2 hours pre-incubation, 2 hours reaction; read-out: G12C_exchange
Outline: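 Fluorescence exchange of bodipy-GDP for GppNHp, SOS1-driven, read at 485/520 nm; IC50 from four-parameter variable-slope fit. Both mutants used 2.5 nM final labelled protein and a 2 h compound pre-incubation. G12C reaction had 500 uM GppNHp and 150 nM SOS1 for 2 h; G12D ran 4 h.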

[1] = test system: MIA PaCa-2 (KRAS G12C) cells; test: Cellular pERK HTRF assay (KRAS_G12C pERK); format: cell-based, human; conditions: Homo sapiens, MIA PaCa-2, 4 hours incubation, read-out: G12C_pERK
Outline: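 Phospho-ERK1/2 HTRF readout (665 and 620 nm) in lysed MIA PaCa-2 cells, antibodies incubated overnight at room temperature. Cells seeded the day before and treated with G12C compounds for 4 h at 37 °C; IC50 fitted to percent inhibition against log inhibitor concentration.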

Chain of KRAS G12C (P01116 1-188 isoform P01116-2 G12C): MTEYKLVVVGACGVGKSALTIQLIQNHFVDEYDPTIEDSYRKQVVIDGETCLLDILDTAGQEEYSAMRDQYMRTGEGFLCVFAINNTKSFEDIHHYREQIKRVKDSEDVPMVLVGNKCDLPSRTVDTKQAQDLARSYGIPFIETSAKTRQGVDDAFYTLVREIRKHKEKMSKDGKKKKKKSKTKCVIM

SMILES	IC50 (KRAS G12C)	IC50 [1]
C=CC(=O)N1CC[C@H](n2cnc3c(N4CC(N(C)C)C4)nc4c(F)c(-c5cccc6c5OCCC6)c(Cl)cc4c32)C[C@H]1CC#N [Example 65, 2-((2S,4S)-1-acryloyl-4-(8-chloro-7-(chroman-8-yl)-4-(3-(dimethylamino)-azetidin-1-yl)-6-fluoro-1H-imidazo[4,5-c]quinolin-1-yl)piperidin-2-yl)acetonitrile]	≤ 100 nM	≤ 100 nM
C=CC(=O)N1CC[C@H](n2cnc3c(N4CC(N(C)C)C4)nc4c(F)c(-c5c(OC)ccc6ccccc56)c(Cl)cc4c32)C[C@H]1CC#N [Example 66, 2-((2S,4S)-1-acryloyl-4-(8-chloro-4-(3-(dimethylamino)azetidin-1-yl)-6-fluoro-7-(2-methoxynaphthalen-1-yl)-1H-imidazo[4,5-c]quinolin-1-yl)piperidin-2-yl)acetonitrile]	≤ 100 nM	≤ 100 nM
C=CC(=O)N1CC[C@H](n2cnc3c(N4CC(N(C)C)C4)nc4c(F)c(-c5ccc(F)c6ccccc56)c(Cl)cc4c32)C[C@H]1CC#N [Example 67, 2-((2S,4S)-1-acryloyl-4-(8-chloro-4-(3-(dimethylamino)azetidin-1-yl)-6-fluoro-7-(4-fluoronaphthalen-1-yl)-1H-imidazo[4,5-c]quinolin-1-yl)piperidin-2-yl)acetonitrile]	≤ 100 nM	≤ 100 nM
C=CC(=O)N1CC[C@H](n2cnc3c(N4CC(N(C)C)C4)nc4c(F)c(-c5cccc6cccc(C)c56)c(Cl)cc4c32)C[C@H]1CC#N [Example 68, 2-((2S,4S)-1-acryloyl-4-(8-chloro-4-(3-(dimethylamino)azetidin-1-yl)-6-fluoro-7-(8-methylnaphthalen-1-yl)-1H-imidazo[4,5-c]quinolin-1-yl)piperidin-2-yl)acetonitrile]	≤ 100 nM	≤ 100 nM
C=CC(=O)N1CC[C@H](n2cnc3c(N4CC(N(C)C)C4)nc4c(F)c(-c5cccc6c5OCCO6)c(Cl)cc4c32)C[C@H]1CC#N [Example 69, 2-((2S,4S)-1-acryloyl-4-(8-chloro-7-(2,3-dihydrobenzo[b][1,4]dioxin-5-yl)-4-(3-(dimethylamino)azetidin-1-yl)-6-fluoro-1H-imidazo[4,5-c]quinolin-1-yl)piperidin-2-yl)acetonitrile]	≤ 100 nM	≤ 100 nM
CC#CC(=O)N1CC[C@H](n2cnc3c(N4CC(C)(N(C)C)C4)nc4c(F)c(-c5c(C)c(Cl)cc6[nH]ncc56)c(Cl)cc4c32)C[C@H]1CC#N [Example 81a, 2-((2S,4S)-1-(but-2-ynoyl)-4-(8-chloro-7-(6-chloro-5-methyl-1H-indazol-4-yl)-4-(3-(dimethyl-amino)-3-methylazetidin-1-yl)-6-fluoro-1H-imidazo[4,5-c]quinolin-1-yl)piperidin-2-yl)acetonitrile]	≤ 100 nM	≤ 100 nM
CC#CC(=O)N1CC[C@H](n2cnc3c(N4CC5(CCCN5C)C4)nc4c(F)c(-c5c(C)c(Cl)cc6[nH]ncc56)c(Cl)cc4c32)C[C@H]1CC#N [Example 83a, 2-((2S,4S)-1-(but-2-ynoyl)-4-(8-chloro-7-(6-chloro-5-methyl-1H-indazol-4-yl)-6-fluoro-4-(5-methyl-2,5-diazaspiro[3.4]octan-2-yl)-1H-imidazo[4,5-c]quinolin-1-yl)piperidin-2-yl)acetonitrile]	≤ 100 nM	≤ 100 nM
COC/C=C/C(=O)N1CC[C@H](n2cnc3c(N4CC5(CCCN5C)C4)nc4c(F)c(-c5c(C)c(Cl)cc6[nH]ncc56)c(Cl)cc4c32)C[C@H]1CC#N [Example 84a, 2-((2S,4S)-4-(8-chloro-7-(6-chloro-5-methyl-1H-indazol-4-yl)-6-fluoro-4-(5-methyl-2,5-diazaspiro[3.4]octan-2-yl)-1H-imidazo[4,5-c]quinolin-1-yl)-1-((E)-4-methoxybut-2-enoyl)piperidin-2-yl)acetonitrile]	≤ 100 nM	≤ 100 nM
C=CC(=O)N1CC[C@H](n2nnc3c(OC[C@@H]4CCCN4C)nc4c(F)c(-c5ccc(F)c(Cl)c5)c(Cl)cc4c32)C[C@H]1CC#N [Example 85, 2-((2S,4S)-1-acryloyl-4-(8-chloro-7-(3-chloro-4-fluorophenyl)-6-fluoro-4-(((S)-1-methylpyrrolidin-2-yl)methoxy)-1H-[1,2,3]triazolo[4,5-c]quinolin-1-yl)piperidin-2-yl)acetonitrile]	≤ 100 nM	≤ 100 nM
C=CC(=O)N1CC[C@H](n2nnc3c(OC[C@@H]4CCCN4C)nc4c(F)c(-c5cccc(Cl)c5C)c(Cl)cc4c32)C[C@H]1CC#N [Example 86, 2-((2S,4S)-1-acryloyl-4-(8-chloro-7-(3-chloro-2-methylphenyl)-6-fluoro-4-(((S)-1-methylpyrrolidin-2-yl)methoxy)-1H-[1,2,3]triazolo[4,5-c]quinolin-1-yl)piperidin-2-yl)acetonitrile]	≤ 100 nM	≤ 100 nM
Cc1c(Cl)cccc1-c1c(Cl)cc2c(nc(OC[C@@H]3CCCN3C)c3nnn([C@H]4CCN(C(=O)/C=C/CN(C)C)[C@H](CC#N)C4)c32)c1F [Example 88, 2-((2S,4S)-4-(8-chloro-7-(3-chloro-2-methylphenyl)-6-fluoro-4-(((S)-1-methylpyrrolidin-2-yl)methoxy)-1H-[1,2,3]triazolo[4,5-c]quinolin-1-yl)-1-((E)-4-(dimethylamino)but-2-enoyl)piperidin-2-yl)acetonitrile]	≤ 100 nM	≤ 100 nM

Further lines, results first:

IC50 (KRAS G12C)	IC50 [1]	SMILES
≤ 100 nM	≤ 100 nM	C=CC(=O)N1CC[C@H](n2cnc3c(N4CC(N(C)C)C4)nc4c(F)c(-c5cncc(Cl)c5C)c(Cl)cc4c32)C[C@H]1CC#N [Example 89, 2-((2S,4S)-1-acryloyl-4-(8-chloro-7-(5-chloro-4-methylpyridin-3-yl)-4-(3-(dimethylamino)azetidin-1-yl)-6-fluoro-1H-imidazo[4,5-c]quinolin-1-yl)piperidin-2-yl)acetonitrile]
≤ 100 nM	≤ 100 nM	C=CC(=O)N1CC[C@H](n2cnc3c(N4CC(N(C)C)C4)nc4c(F)c(-c5c(OC)ncc(Cl)c5C)c(Cl)cc4c32)C[C@H]1CC#N [Example 90, 2-((2S,4S)-1-acryloyl-4-(8-chloro-7-(5-chloro-2-methoxy-4-methylpyridin-3-yl)-4-(3-(dimethylamino)azetidin-1-yl)-6-fluoro-1H-imidazo[4,5-c]quinolin-1-yl)piperidin-2-yl)acetonitrile]
≤ 100 nM	≤ 100 nM	CC#CC(=O)N1CC[C@H](n2nnc3c(N4CCOCC4=O)nc4c(F)c(-c5cccc(Cl)c5C)c(Cl)cc4c32)C[C@H]1CC#N [Example 91, 2-((2S,4S)-1-(but-2-ynoyl)-4-(8-chloro-7-(3-chloro-2-methylphenyl)-6-fluoro-4-(3-oxomorpholino)-1H-[1,2,3]triazolo[4,5-c]quinolin-1-yl)piperidin-2-yl)acetonitrile]
≤ 100 nM	≤ 100 nM	CC#CC(=O)N1CC[C@H](n2nnc3c(N4CCN(C)CC4=O)nc4c(F)c(-c5cccc(Cl)c5C)c(Cl)cc4c32)C[C@H]1CC#N [Example 92, 2-((2S,4S)-1-(but-2-ynoyl)-4-(8-chloro-7-(3-chloro-2-methylphenyl)-6-fluoro-4-(4-methyl-2-oxopiperazin-1-yl)-1H-[1,2,3]triazolo[4,5-c]quinolin-1-yl)piperidin-2-yl)acetonitrile]
≤ 100 nM	≤ 100 nM	CC#CC(=O)N1CC[C@H](n2nnc3c(N4CCCCC4=O)nc4c(F)c(-c5cccc(Cl)c5C)c(Cl)cc4c32)C[C@H]1CC#N [Example 93, 2-((2S,4S)-1-(but-2-ynoyl)-4-(8-chloro-7-(3-chloro-2-methylphenyl)-6-fluoro-4-(2-oxopiperidin-1-yl)-1H-[1,2,3]triazolo[4,5-c]quinolin-1-yl)piperidin-2-yl)acetonitrile]
≤ 100 nM	≤ 100 nM	CC#CC(=O)N1CC[C@H](n2nnc3c(O[C@@H](C)CN(C)C)nc4c(F)c(-c5cccc(Cl)c5C)c(Cl)cc4c32)C[C@H]1CC#N [Example 94, 2-((2S,4S)-1-(but-2-ynoyl)-4-(8-chloro-7-(3-chloro-2-methylphenyl)-4-(((S)-1-(dimethylamino)propan-2-yl)oxy)-6-fluoro-1H-[1,2,3]triazolo[4,5-c]quinolin-1-yl)piperidin-2-yl)acetonitrile]
≤ 100 nM	≤ 100 nM	C=CC(=O)N1CC[C@H](n2nnc3c(OC[C@@H]4CCCN4C)nc4c(F)c(-c5cccc(C#N)c5C)c(Cl)cc4c32)C[C@H]1CC#N [Example 95, 3-(1-((2S,4S)-1-acryloyl-2-(cyanomethyl)piperidin-4-yl)-8-chloro-6-fluoro-4-(((S)-1-methylpyrrolidin-2-yl)methoxy)-1H-[1,2,3]triazolo[4,5-c]quinolin-7-yl)-2-methylbenzonitrile]
≤ 100 nM	≤ 100 nM	CC#CC(=O)N1CC[C@H](n2nnc3c(OC[C@@H]4CCCN4C)nc4c(F)c(-c5cccc(C#N)c5C)c(Cl)cc4c32)C[C@H]1CC#N [Example 96, 3-(1-((2S,4S)-1-(but-2-ynoyl)-2-(cyanomethyl)piperidin-4-yl)-8-chloro-6-fluoro-4-(((S)-1-methylpyrrolidin-2-yl)methoxy)-1H-[1,2,3]triazolo[4,5-c]quinolin-7-yl)-2-methylbenzonitrile]
≤ 100 nM	≤ 100 nM	Cc1c(C#N)cccc1-c1c(Cl)cc2c(nc(OC[C@@H]3CCCN3C)c3nnn([C@H]4CCN(C(=O)/C=C/CN(C)C)[C@H](CC#N)C4)c32)c1F [Example 97, 3-(8-chloro-1-((2S,4S)-2-(cyanomethyl)-1-((E)-4-(dimethylamino)but-2-enoyl)piperidin-4-yl)-6-fluoro-4-(((S)-1-methylpyrrolidin-2-yl)methoxy)-1H-[1,2,3]triazolo[4,5-c]quinolin-7-yl)-2-methylbenzonitrile]
